The values that follow come from patent US20260193295A1, “CILAGICIN COMPOUNDS AND METHODS OF USE THEREOF” (priority 2022, published 2026).

For one assay, the system named is Streptococcus pneumoniae. In kind it is cell-based. Here is the method:
(§1) MIC assay were conducted using the protocol recommended by the Clinical and Laboratory Standards Institute.(37) Culture conditions (temperature, medium) are detailed in Table 3. All compounds were dissolved in sterile DMSO (ATCC, USA) to give a concentration of 6.4 mg/mL. Vancomycin hydrochloride was used as positive controls. Tested compounds were serially diluted across 96-well plates using a 2-fold serial dilution in a volume of 50 μL. An overnight culture of an assay strain was diluted 5,000-fold in fresh medium. 50 μL of this dilution was added into each well, giving a final volume of 100 μL in each well. Compounds were assayed at concentrations ranging from 64 μg/mL to 0.06 μg/mL. The top and bottom rows of each plate were filled with 100 μL of media to avoid edge effects. […] For Clostridium difficile plates were statically incubated under anaerobic conditions (Vinyl anaerobic chamber, 37° C., 5% H2, 5% CO2, 90% N2). For Streptococcus pneumoniae plates were statically incubated under aerobic conditions supplemented with 5% C02 (37° C.). All MICs were performed in technical duplicate (n=2) and repeated three independent times (n=3).

A further assay has as its system Staphylococcus aureus. In kind it is cell-based. The method, then:
as §1

The test system of the next assay is Enterococcus faecium. In kind it is cell-based. The method, then:
as §1

The test system of another assay is Streptococcus agalactiae. The class given is cell-based. Here is the method:
as §1

The test system of the next assay is Streptococcus pyrogens. The class given is cell-based. Here is the method: as §1
In another assay the test system is S. aureus USA300. Briefly: Resistance studies (daily serial passage at sub-MIC). In kind it is cell-based, Staphylococcus aureus. The conditions noted are these: daily serial passage at sub-MIC levels of antibiotic. Here is the method:
A single colony of S. aureus USA300 was inoculated in 5 mL LB broth and grown overnight at 37° C. with continuous shaking (200 rpm). The overnight culture was then diluted 1:5,000 into fresh LB. 50 μL aliquots of dilute cells were transferred into individual wells of 96-well plates containing 50 μL of serially diluted cilagicin, amphomycin (AG Scientific, USA) or bacitracin (Sigma, USA). Plates were statically incubated at 37° C. After 24 hours, the MIC was recorded. […] The MIC was determined as described above. This process was repeated daily for 25 days. For bacitracin, the LB medium was supplemented with 50 μg/mL ZnCl2. For amphomycin, the medium was supplemented with 100 μg/mL CaCl2-2H2O. Experiments were performed three independent times (n=3).

The subject of assay [1] is vancomycin-resistant Enterococci clinical isolates. The conditions noted are these: cited from earlier work.
Setting [2] is: Enterococci clinical isolate code 781.
[3] abbreviates: Enterococci clinical isolate code 782.
The mark [4] stands for this setting: Enterococci clinical isolate code 783.
[5] abbreviates: Enterococci clinical isolate code 784.
The mark [6] stands for this setting: Enterococci clinical isolate code 785.
[7] abbreviates: Enterococci clinical isolate code 786.
Where [8] appears, read: Enterococci clinical isolate code 787.
Where [9] appears, read: Enterococci clinical isolate code 788.
Setting [10] is: Enterococci clinical isolate code 789.
Setting [11] is: Enterococci clinical isolate code 790.
The mark [12] stands for this setting: Enterococci clinical isolate code 791.
Where [13] appears, read: Enterococci clinical isolate code 792.
Where [14] appears, read: Enterococci clinical isolate code 793.
Setting [15] is: Enterococci clinical isolate code 794.
[16] abbreviates: Enterococci clinical isolate code 795.
The mark [17] stands for this setting: Enterococci clinical isolate code 796.
The mark [18] stands for this setting: Enterococci clinical isolate code 797.
[19] abbreviates: Enterococci clinical isolate code 798.
[20] abbreviates: Enterococci clinical isolate code 799.
Where [21] appears, read: Enterococci clinical isolate code 800.
Where [22] appears, read: Enterococci clinical isolate code 801.
[23] abbreviates: Enterococci clinical isolate code 802.
Setting [24] is: Enterococci clinical isolate code 803.
Setting [25] is: Enterococci clinical isolate code 804.
[26] abbreviates: Enterococci clinical isolate code 805.
Setting [27] is: Enterococci clinical isolate code 806.
[28] abbreviates: Enterococci clinical isolate code 807.
Where [29] appears, read: Enterococci clinical isolate code 808.
Setting [30] is: Enterococci clinical isolate code 809.
The mark [31] stands for this setting: Enterococci clinical isolate code 810.

In brackets after ≈: the same amount, converted by molar mass. Like-named read-outs stand apart in the source and are kept apart here. Positions of bridges follow the written chain, without caps; N, C: chain ends. Non-standard residues stand in square brackets, D forms with d. Residues, ends and D or L forms follow the SMILES beside them. *: point of attachment. Ileψ(thiazoline)Cys = CC[C@H](C)[C@H](N)C1=N[C@H](C(=O)*)CS1; Hexanoyl(6-Ph) = O=C(CCCCCc1ccccc1)*; X2 = O=C(c1cc2ccccc2n1Cc1ccccc1)*; dOrn = NCCC[C@@H](N)C(=O)O; X1 = CC[C@H](C)CCCCC(=O)*; X3 = Cc1ccccc1/C=C/C(=O)*; dDab = NCC[C@@H](N)C(=O)O; Dab = NCC[C@H](N)C(=O)O

For the compound `CC(C)[C@@H]1NC(=O)[C@H](Cc2ccc(O)cc2)NC(=O)CNC(=O)[C@@H](CC(=O)O)NC(=O)[C@@H](CC(N)=O)NC(=O)CNC(=O)[C@H](CC(=O)O)NC(=O)[C@@H](CCN)NC(=O)[C@@H](NC(=O)[C@@H](CO)NC(=O)CCCCCc2ccccc2)[C@@H](C)OC(=O)[C@H](Cc2ccccc2)NC(=O)[C@H](CCN)NC1=O` [Cilagicin L3] ({Hexanoyl(6-Ph)}-[dS]T[dDab]DG[dN][dD]GYV[Dab]F; ester 2-C), the minimum inhibitory concentration (MIC) worked out at 4 µg/mL (≈ 2.8 µM) against Streptococcus pneumoniae; 8 µg/mL (≈ 5.59 µM) against Staphylococcus aureus; 64 µg/mL (≈ 44.7 µM) against Enterococcus faecium; 16 µg/mL (≈ 11.2 µM) with Streptococcus agalactiae; 1 µg/mL (≈ 0.699 µM) with Streptococcus pyrogens.

For the compound `CC(C)[C@@H]1NC(=O)[C@H](Cc2ccc(O)cc2)NC(=O)CNC(=O)[C@@H](CC(=O)O)NC(=O)[C@@H](CC(N)=O)NC(=O)CNC(=O)[C@H](CC(=O)O)NC(=O)[C@@H](CCN)NC(=O)[C@@H](NC(=O)[C@@H](CO)NC(=O)c2cc3ccccc3n2Cc2ccccc2)[C@@H](C)OC(=O)[C@H](Cc2ccccc2)NC(=O)[C@H](CCN)NC1=O` [Cilagicin L4] (X2-[dS]T[dDab]DG[dN][dD]GYV[Dab]F; ester 2-C), the MIC in the assay on Staphylococcus aureus stood at 8 µg/mL (≈ 5.37 µM).

`CC[C@H](C)CCCCC(=O)N[C@H](CO)C(=O)N[C@@H]1C(=O)N[C@H](CCN)C(=O)N[C@@H](CC(=O)O)C(=O)NCC(=O)N[C@H](CC(N)=O)C(=O)N[C@H](CC(=O)O)C(=O)NCC(=O)N[C@@H](Cc2ccc(O)cc2)C(=O)N[C@@H](C(C)C)C(=O)N[C@@H](CCN)C(=O)N[C@@H](Cc2ccccc2)C(=O)O[C@@H]1C` [Cilagicin L5] (X1-[dS]T[dDab]DG[dN][dD]GYV[Dab]F; ester 2-C): the MIC against Streptococcus pneumoniae was determined as 4 µg/mL (≈ 2.86 µM); in the assay with Staphylococcus aureus it was 4 µg/mL (≈ 2.86 µM); in the assay on Enterococcus faecium, 64 µg/mL (≈ 45.8 µM); in the assay with Streptococcus agalactiae, 8 µg/mL (≈ 5.73 µM); with Streptococcus pyrogens, 1 µg/mL (≈ 0.716 µM).

On to `Cc1ccccc1/C=C/C(=O)N[C@H](CO)C(=O)N[C@@H]1C(=O)N[C@H](CCN)C(=O)N[C@@H](CC(=O)O)C(=O)NCC(=O)N[C@H](CC(N)=O)C(=O)N[C@H](CC(=O)O)C(=O)NCC(=O)N[C@@H](Cc2ccc(O)cc2)C(=O)N[C@@H](C(C)C)C(=O)N[C@@H](CCN)C(=O)N[C@@H](Cc2ccccc2)C(=O)O[C@@H]1C` [Cilagicin L6] (X3-[dS]T[dDab]DG[dN][dD]GYV[Dab]F; ester 2-C), for which the MIC with Streptococcus pneumoniae is 32 µg/mL (≈ 22.8 µM); with Staphylococcus aureus it was 64 µg/mL (≈ 45.7 µM); with Enterococcus faecium, >64 µg/mL; in the assay with Streptococcus agalactiae it was 64 µg/mL (≈ 45.7 µM); against Streptococcus pyrogens, 4 µg/mL (≈ 2.86 µM).

Take `CC[C@H](C)[C@H](N)C1=N[C@H](C(=O)N[C@@H](CC(C)C)C(=O)N[C@H](CCC(=O)O)C(=O)N[C@H](C(=O)N[C@H]2CCCCNC(=O)[C@H](CC(N)=O)NC(=O)[C@@H](CC(=O)O)NC(=O)[C@H](Cc3cnc[nH]3)NC(=O)[C@@H](Cc3ccccc3)NC(=O)[C@H]([C@@H](C)CC)NC(=O)[C@@H](CCCN)NC2=O)[C@@H](C)CC)CS1` [bacitracin] ({Ileψ(thiazoline)Cys}-L[dE]IK[dOrn]I[dF]H[dD]N; lactam 4-C): in the assay on S. aureus USA300, the “development of resistance by S. aureus” value was “rapidly developed resistance”.

Turning to Penicillin, the MIC in assay [1] (setting [2]) is 2 µg/mL; in assay [1] (setting [3]), 2 µg/mL; in assay [1] (setting [4]), >32 µg/mL; in assay [1] (setting [5]), 2 µg/mL; in assay [1] (setting [6]), 4 µg/mL; in assay [1] (setting [7]), 1 µg/mL. Further, the MIC is 32 µg/mL in assay [1] (setting [8]); 1 µg/mL in assay [1] (setting [9]); ≤0.12 µg/mL in assay [1] (setting [10]); >32 µg/mL in assay [1] (setting [11]); 2 µg/mL in assay [1] (setting [12]); >32 µg/mL in assay [1] (setting [13]). For the same compound, the minimal inhibitory concentration (MIC) was 2 µg/mL in assay [1] (setting [14]); >32 µg/mL in assay [1] (setting [15]); 4 µg/mL in assay [1] (setting [16]); 2 µg/mL in assay [1] (setting [17]); 0.5 µg/mL in assay [1] (setting [18]); 1 µg/mL in assay [1] (setting [19]). The MIC in assay [1] (setting [20]) is 2 µg/mL; in assay [1] (setting [21]), 2 µg/mL; in assay [1] (setting [22]), 1 µg/mL; in assay [1] (setting [23]) it was >32 µg/mL; in assay [1] (setting [24]) it was >32 µg/mL; in assay [1] (setting [25]) it was 4 µg/mL. Also, the minimal inhibitory concentration (MIC) in assay [1] (setting [26]) is 2 µg/mL; in assay [1] (setting [27]) it was 8 µg/mL; in assay [1] (setting [28]) it was >32 µg/mL; in assay [1] (setting [29]), 2 µg/mL; in assay [1] (setting [30]) it was 1 µg/mL; in assay [1] (setting [31]) it was 2 µg/mL.

Regarding Teicoplanin, the minimal inhibitory concentration (MIC) in assay [1] (setting [2]) is >64 µg/mL; in assay [1] (setting [3]) it was 0.5 µg/mL; in assay [1] (setting [4]), 2 µg/mL; in assay [1] (setting [5]), 0.5 µg/mL; in assay [1] (setting [6]), 0.5 µg/mL; in assay [1] (setting [7]), 0.25 µg/mL. For the same compound, the minimum inhibitory concentration (MIC) in assay [1] (setting [8]) is >64 µg/mL; in assay [1] (setting [9]), 1 µg/mL; in assay [1] (setting [10]) it was >64 µg/mL; in assay [1] (setting [11]) it was 1 µg/mL; in assay [1] (setting [12]), 0.5 µg/mL; in assay [1] (setting [13]), 1 µg/mL. Further, the MIC was 0.5 µg/mL in assay [1] (setting [14]); 64 µg/mL in assay [1] (setting [15]); 0.5 µg/mL in assay [1] (setting [16]); 1 µg/mL in assay [1] (setting [17]); 1 µg/mL in assay [1] (setting [18]); 1 µg/mL in assay [1] (setting [19]). The MIC was 0.5 µg/mL in assay [1] (setting [20]); 0.5 µg/mL in assay [1] (setting [21]); 1 µg/mL in assay [1] (setting [22]); 64 µg/mL in assay [1] (setting [23]); >64 µg/mL in assay [1] (setting [24]); 0.5 µg/mL in assay [1] (setting [25]). Also, the MIC is 0.5 µg/mL in assay [1] (setting [26]); 1 µg/mL in assay [1] (setting [27]); 1 µg/mL in assay [1] (setting [28]); 0.5 µg/mL in assay [1] (setting [29]); 64 µg/mL in assay [1] (setting [30]); 0.5 µg/mL in assay [1] (setting [31]).

Turning to amphomycin, the “development of resistance by S. aureus” value in the assay with S. aureus USA300 is on record as “rapidly developed resistance”.

In general, MIC refers to the lowest concentration that inhibits growth of the organism.
